Laboratory results published in ChEMBL document CHEMBL1821583 (Bioorg Med Chem Lett, 2011).

Assays:
[1] = Inhibition of hedgehog signaling pathway in mouse Shh Light2 cells by Gli-dependent reporter gene assay; format: functional, cell-based; conditions: Shh Light II
[2] = molecular target: T1, Protein smoothened (Homo sapiens, UniProt Q99835); test: Displacement of BODIPY-cyclopamine from Smo expressed in COS-1 cells after 4 to 6 hrs by Flow Cytometry analysis in presence of 2% fetal calf serum; format: cell-based
[3] = molecular target: T1, Protein smoothened; test: Displacement of BODIPY-cyclopamine from Smo expressed in COS-1 cells after 4 to 6 hrs by Flow Cytometry analysis in presence of 20% normal human serum; format: cell-based
[4] = Intrinsic clearance in rat liver microsomes assessed per mg of protein; format: ADME, Microsome
[5] = Intrinsic clearance in human liver microsomes assessed per mg of protein; format: ADME, Microsome
[6] = molecular target: Voltage-gated inwardly rectifying potassium channel KCNH2 (Homo sapiens, UniProt Q12809)
[7] = Clearance in iv dosed rat; format: ADME, organism-based; conditions: in vivo
[8] = Lipophilicity, log D of the compound; format: physicochemical; conditions: octanol/water

Sequence of Voltage-gated inwardly rectifying potassium channel KCNH2 (Q12809 whole entry): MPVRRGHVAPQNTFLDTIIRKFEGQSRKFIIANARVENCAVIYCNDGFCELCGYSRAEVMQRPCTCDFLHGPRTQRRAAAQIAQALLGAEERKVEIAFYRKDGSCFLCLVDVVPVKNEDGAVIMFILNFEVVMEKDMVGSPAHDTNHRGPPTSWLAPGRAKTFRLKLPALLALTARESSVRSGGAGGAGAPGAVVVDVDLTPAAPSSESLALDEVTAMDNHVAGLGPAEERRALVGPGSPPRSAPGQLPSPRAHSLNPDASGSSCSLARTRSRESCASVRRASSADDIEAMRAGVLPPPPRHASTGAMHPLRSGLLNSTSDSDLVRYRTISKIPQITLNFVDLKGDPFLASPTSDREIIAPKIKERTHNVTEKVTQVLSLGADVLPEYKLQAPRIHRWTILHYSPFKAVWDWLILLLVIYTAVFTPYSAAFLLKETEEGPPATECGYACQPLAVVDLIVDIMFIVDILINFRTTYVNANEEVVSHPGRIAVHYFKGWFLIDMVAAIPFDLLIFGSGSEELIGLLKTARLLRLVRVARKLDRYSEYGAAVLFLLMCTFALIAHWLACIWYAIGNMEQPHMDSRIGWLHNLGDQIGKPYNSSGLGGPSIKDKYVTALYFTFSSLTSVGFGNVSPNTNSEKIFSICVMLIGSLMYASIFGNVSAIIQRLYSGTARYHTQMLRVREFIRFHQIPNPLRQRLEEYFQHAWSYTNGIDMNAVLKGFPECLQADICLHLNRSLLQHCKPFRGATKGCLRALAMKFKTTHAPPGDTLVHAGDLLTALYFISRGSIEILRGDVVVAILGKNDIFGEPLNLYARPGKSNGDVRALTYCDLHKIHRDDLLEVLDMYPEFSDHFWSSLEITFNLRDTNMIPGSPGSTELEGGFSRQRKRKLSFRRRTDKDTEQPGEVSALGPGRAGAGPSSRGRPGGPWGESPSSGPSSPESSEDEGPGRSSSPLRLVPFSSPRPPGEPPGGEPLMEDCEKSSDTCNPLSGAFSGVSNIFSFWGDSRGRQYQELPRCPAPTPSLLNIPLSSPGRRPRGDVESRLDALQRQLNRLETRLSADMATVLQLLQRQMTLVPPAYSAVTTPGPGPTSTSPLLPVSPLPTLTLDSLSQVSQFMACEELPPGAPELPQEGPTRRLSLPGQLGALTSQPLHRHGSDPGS
T1 sequence (Q99835 whole entry): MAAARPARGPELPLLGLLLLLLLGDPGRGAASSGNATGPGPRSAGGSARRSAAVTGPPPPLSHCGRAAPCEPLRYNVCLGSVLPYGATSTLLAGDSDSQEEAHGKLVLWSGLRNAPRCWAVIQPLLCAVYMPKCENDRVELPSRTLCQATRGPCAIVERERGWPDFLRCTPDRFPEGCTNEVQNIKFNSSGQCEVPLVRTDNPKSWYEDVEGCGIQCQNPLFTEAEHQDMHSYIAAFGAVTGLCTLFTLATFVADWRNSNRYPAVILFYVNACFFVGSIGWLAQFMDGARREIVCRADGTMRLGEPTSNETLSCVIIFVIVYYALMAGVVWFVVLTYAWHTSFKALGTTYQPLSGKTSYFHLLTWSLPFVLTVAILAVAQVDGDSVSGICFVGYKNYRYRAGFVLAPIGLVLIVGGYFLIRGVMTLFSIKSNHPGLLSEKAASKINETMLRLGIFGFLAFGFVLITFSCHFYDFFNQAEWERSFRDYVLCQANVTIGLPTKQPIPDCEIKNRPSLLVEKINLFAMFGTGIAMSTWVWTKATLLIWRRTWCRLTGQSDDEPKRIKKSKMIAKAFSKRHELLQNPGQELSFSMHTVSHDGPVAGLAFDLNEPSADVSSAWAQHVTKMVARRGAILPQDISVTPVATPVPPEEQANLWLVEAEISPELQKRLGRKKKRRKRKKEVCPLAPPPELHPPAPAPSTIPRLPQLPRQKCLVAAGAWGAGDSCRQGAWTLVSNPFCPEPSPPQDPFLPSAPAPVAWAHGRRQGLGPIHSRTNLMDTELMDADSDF

| IC50 [1] | IC50 [2] | IC50 [3] | microsomal CLint [4] | microsomal CLint [5] | clearance [7] | logD [8] | Compound | IC50 [6] |
| --- | --- | --- | --- | --- | --- | --- | --- | --- |
| 90 nM | 110 nM | 200 nM |  |  |  |  | O=C(NCC1(N2CCC(F)CC2)CCCC1)N1CCC(c2nc(-c3ccc4ccccc4n3)no2)CC1 |  |
| 5 nM | 13 nM | 13 nM |  |  |  |  | O=C(NC1CCC(F)(F)CC1)N1CCN(c2nc(-c3ccc4ccccc4n3)no2)CC1 |  |
|  | 290 nM | 490 nM |  |  |  |  | CCN1CCCC1CNC(=O)N1CCC(c2nc(-c3ccc4ccccc4n3)no2)CC1 (stereo not given) |  |
| 4 nM | 5 nM | 6 nM |  |  |  |  | Cn1c(-c2noc(N3CCN(C(=O)NCC4(N5CCCCC5)CCCC4)CC3)n2)nc2ccccc21 |  |
| 120 nM | 55 nM | 46 nM | > 200 µL/min/mg | 98 µL/min/mg |  |  | CCN(CC)C1(CNC(=O)N2CCC(c3nc(-c4ccc5ccccc5n4)no3)CC2)CCCC1 | 9400 nM |
| 960 nM | 380 nM | 600 nM |  |  |  |  | O=C(NCC1NCCc2ccccc21)N1CCC(c2nc(-c3ccc4ccccc4n3)no2)CC1 (stereo not given) |  |
| 330 nM | 240 nM | 480 nM |  |  |  |  | O=C(NCC1(N2CCOCC2)CCCCCC1)N1CCC(c2nc(-c3ccc4ccccc4n3)no2)CC1 |  |
| 230 nM | 300 nM | 390 nM |  |  |  |  | CCN1CCOCC1CNC(=O)N1CCC(c2nc(-c3ccc4ccccc4n3)no2)CC1 (stereo not given) |  |
| 18 nM | 17 nM | 15 nM |  |  |  |  | Cn1c(-c2noc(C3CCN(C(=O)NCC4(N5CCOCC5)CCCC4)CC3)n2)nc2ccccc21 |  |
| 88 nM | 46 nM | 91 nM | 51 µL/min/mg | 7 µL/min/mg |  |  | CCNC1(CNC(=O)N2CCC(c3nc(-c4ccc5ccccc5n4)no3)CC2)CCCC1 | 24000 nM |
| 310 nM | 300 nM | 370 nM | 27 µL/min/mg | 40 µL/min/mg |  |  | CN(C)C1(CNC(=O)N2CCC(c3nc(-c4ccc5ccccc5n4)no3)CC2)CCCC1 | 38000 nM |
| 69 nM | 32 nM | 42 nM | 100 µL/min/mg | 52 µL/min/mg |  |  | O=C(NCC1(N2CCCC2)CCCC1)N1CCC(c2nc(-c3ccc4ccccc4n3)no2)CC1 | 7100 nM |
| 100 nM | 46 nM | 51 nM | 160 µL/min/mg | 49 µL/min/mg | > 100 mL/min/kg |  | O=C(NCC1(N2CCCCC2)CCCC1)N1CCC(c2nc(-c3ccc4ccccc4n3)no2)CC1 |  |
| 40 nM | 8 nM | 10 nM |  |  | > 100 mL/min/kg |  | O=C(NCC1(N2CCCCC2)CCCC1)N1CCN(c2nc(-c3ccc4ccccc4n3)no2)CC1 |  |
| 2000 nM | 2000 nM | 14000 nM |  |  |  |  | CC(C)(C)OC(=O)NC1(CNC(=O)N2CCC(c3nc(-c4ccc5ccccc5n4)no3)CC2)CCCC1 |  |
| 380 nM | 360 nM | 470 nM |  |  |  |  | CN1CCc2ccccc2C1CNC(=O)N1CCC(c2nc(-c3ccc4ccccc4n3)no2)CC1 (stereo not given) |  |
| 8200 nM | 8600 nM | 17000 nM |  |  |  |  | O=C(NCC(c1ccncc1)N1CCOCC1)N1CCC(c2nc(-c3ccc4ccccc4n3)no2)CC1 (stereo not given) |  |
| 4200 nM | 2600 nM | 9900 nM |  |  |  |  | O=C(NCC(c1cccnc1)N1CCOCC1)N1CCC(c2nc(-c3ccc4ccccc4n3)no2)CC1 (stereo not given) |  |
| 350 nM | 630 nM | 790 nM |  |  |  |  | NC1(CNC(=O)N2CCC(c3nc(-c4ccc5ccccc5n4)no3)CC2)CCCC1 |  |

| IC50 [1] | IC50 [2] | IC50 [3] | microsomal CLint [4] | microsomal CLint [5] | clearance [7] | logD [8] | Compound | IC50 [6] |
| --- | --- | --- | --- | --- | --- | --- | --- | --- |
| 140 nM | 23 nM | 72 nM | > 500 µL/min/mg | > 500 µL/min/mg |  |  | O=C(NCC1(N2CCOCC2)CCCCC1)N1CCC(c2nc(-c3ccc4ccccc4n3)no2)CC1 | 4300 nM |
| 100 nM | 180 nM | 950 nM |  |  |  |  | O=C(NCC1(N2CCC(F)(F)CC2)CCCC1)N1CCC(c2nc(-c3ccc4ccccc4n3)no2)CC1 |  |
| 16 nM | 10 nM | 15 nM |  |  |  |  | O=C(NCC1(N2CCOCC2)CCCC1)N1CCN(c2nc(-c3ccc4ccccc4n3)no2)CC1 |  |
| 790 nM | 2700 nM | 4200 nM |  |  |  |  | O=C(NCC(c1ccccn1)N1CCOCC1)N1CCC(c2nc(-c3ccc4ccccc4n3)no2)CC1 (stereo not given) |  |
| 23 nM | 21 nM | 19 nM |  |  |  |  | Cn1c(-c2noc(C3CCN(C(=O)NCC4(N5CCCCC5)CCCC4)CC3)n2)nc2ccccc21 |  |
| 410 nM | 810 nM | 4500 nM |  |  |  |  | O=C(NCC1(c2ccccc2)CCCC1)N1CCC(c2nc(-c3ccc4ccccc4n3)no2)CC1 |  |
| 450 nM | 510 nM | 400 nM |  |  |  |  | CN1CCN(C2(CNC(=O)N3CCC(c4nc(-c5ccc6ccccc6n5)no4)CC3)CCCC2)CC1 |  |
| 46 nM | 30 nM | 100 nM | > 500 µL/min/mg | > 400 µL/min/mg |  | 2.62 | O=C(NCC1(N2CCOCC2)CCCC1)N1CCC(c2nc(-c3ccc4ccccc4n3)no2)CC1 | 10000 nM |
| 2500 nM | 4900 nM | 3400 nM |  |  |  |  | O=C(NCCN1CCOCC1)N1CCC(c2nc(-c3ccc4ccccc4n3)no2)CC1 |  |
| 430 nM | 140 nM | 520 nM |  |  |  |  | O=C(NCC1(NC2CCCCC2)CCCC1)N1CCC(c2nc(-c3ccc4ccccc4n3)no2)CC1 |  |
| 190 nM | 320 nM | 13000 nM |  |  |  |  | CC(=O)NC1(CNC(=O)N2CCC(c3nc(-c4ccc5ccccc5n4)no3)CC2)CCCC1 |  |
| 25 nM | 16 nM | 58 nM |  |  |  |  | CC(C)NC1(CNC(=O)N2CCC(c3nc(-c4ccc5ccccc5n4)no3)CC2)CCCC1 |  |
| 260 nM | 210 nM | 530 nM |  |  |  |  | COC1CCN(C2(CNC(=O)N3CCC(c4nc(-c5ccc6ccccc6n5)no4)CC3)CCCC2)CC1 |  |
|  | 230 nM | 7000 nM |  |  |  |  | O=C(NCC1(C(=O)N2CCCCC2)CCCC1)N1CCC(c2nc(-c3ccc4ccccc4n3)no2)CC1 |  |
| 850 nM | 340 nM | 650 nM | 19 µL/min/mg | 10 µL/min/mg | > 100 mL/min/kg |  | CC(C)N1CCCC1CNC(=O)N1CCC(c2nc(-c3ccc4ccccc4n3)no2)CC1 (stereo not given) |  |
| 450 nM | 290 nM | 670 nM | > 300 µL/min/mg | 112 µL/min/mg |  |  | CC(C)(CNC(=O)N1CCC(c2nc(-c3ccc4ccccc4n3)no2)CC1)N1CCOCC1 |  |
| 600 nM | 910 nM | 6900 nM |  |  |  |  | O=C(NCC1(CO)CCCC1)N1CCC(c2nc(-c3ccc4ccccc4n3)no2)CC1 |  |
| 130 nM | 210 nM | 330 nM |  |  |  |  | O=C(NCC(c1ccccc1)N1CCCCC1)N1CCC(c2nc(-c3ccc4ccccc4n3)no2)CC1 (stereo not given) |  |
| 130 nM | 64 nM | 80 nM |  |  |  |  | CCN1CCCCC1CNC(=O)N1CCC(c2nc(-c3ccc4ccccc4n3)no2)CC1 (stereo not given) |  |
